In patent US20210007356A1, “IMIDE DERIVATIVE AND FUNGICIDE CONTAINING SAID DERIVATIVE AS ACTIVE INGREDIENT” (HOKKO CHEMICAL INDUSTRY CO., LTD., priority 2018, published 2021):

Key:
[1] = tested on: barley powdery mildew fungus (Erysiphe graminis); assay: Test Example 2: control effect against barley powdery mildew by foliage application; assay type: in vivo; conditions: wettable powder diluted to 100 ppm, 10 mL per pot foliage spray on barley; inoculated day after; 7 days after inoculation
[2] = tested on: rice sheath blight fungus (Thanatephorus cucumeris); assay: Test Example 8: control effect against rice sheath blight by box treatment (granule); conditions: 5 g of granule on nursery box, paddy rice; inoculated after 3 weeks; 7 days after inoculation
[3] = tested on: rice sheath blight fungus (Thanatephorus cucumeris); assay: Test Example 6: control effect against rice sheath blight by box treatment (flowable formulation); conditions: flowable 5,000 ppm, 50 mL irrigation of nursery box, paddy rice; inoculated after 3 weeks; 7 days after inoculation
Protocol: Control value (%)=[1−(lesion height in sprayed plot/lesion height in unsprayed plot)]×100 (d)
By irrigation, 50 mL of a diluted solution (5,000 ppm) of a flowable prepared according to Formulation Example-3 was applied to a 2.5-leaf-stage paddy rice (variety: Asahi) seedling raised using a nursery box ( 1/10 the area of standard nursery box in size: 12 cm×15 cm×height 4 cm) within a greenhouse. The formulation-treated paddy rice seedling was immediately transplanted at 5 seedlings/pot into a pot ( 1/10000 are in size) filled with paddy soil (flooded). After growing for 3 weeks within a greenhouse, a culture of rice sheath blight fungus (Thanatephorus cucumeris) grown in advance on a rice straw medium was inoculated into the root of the formulation-treated paddy rice, and disease development was promoted in an artificial weather chamber at 26° C. (relative humidity=100%). Seven days after the inoculation, the rice sheath blight lesion height (height from the root) was examined, and the control value (%) was calculated according to formula (d). […] This test was performed with three replications, each consisting of one plot and one pot, per one formulation plot, and its average evaluation value of control effect was determined.

[4] = tested on: rice sheath blight fungus (Thanatephorus cucumeris); assay: Test Example 10: control effect against rice sheath blight by water surface application (flowable formulation); conditions: flowable 1,000 ppm, 1 mL dripped in paddy water, inoculated after 1 week, 7 days after inoculation

Row | SMILES | evaluation value of control effect (from control value, lesion area percentage) [1] | evaluation value of control effect (from control value, lesion height) [2] | evaluation value of control effect (from control value, lesion height) [3] | evaluation value of control effect (from control value, lesion height) [4]
1 | Cn1cc(C(=O)N(C(=O)c2snc(Cl)c2Cl)c2ccccc2-c2ccccc2)c(C(F)F)n1 [1-61] | 4 | – | – | –
2 | Cn1cc(C(=O)N(C(=O)c2snc(Cl)c2Cl)c2ccccc2-c2cc(F)c(F)c(F)c2)c(C(F)F)n1 [1-65] | 5 | 5 | 5 | 5
3 | CCC(C)Oc1cccc(N(C(=O)c2cn(C)nc2C(F)F)C(=O)c2snc(Cl)c2Cl)c1C (centres unmarked) [1-122] | – | 5 | 5 | 5
4 | Cc1nsc(C(=O)N(C(=O)c2cn(C)nc2C(F)F)c2ccccc2C(C)CC(C)C)c1Cl (centres unmarked) [1-140] | 5 | 5 | 5 | 5
5 | Cc1nn(C)c(F)c1C(=O)N(C(=O)c1cc(Cl)nc(Cl)c1)c1ccccc1C(C)CC(C)C (centres unmarked) [1-266] | 4 | – | – | –
6 | Cc1nn(C)c(F)c1C(=O)N(C(=O)c1cccc2nnsc12)c1ccccc1C(C)CC(C)C (centres unmarked) [1-279] | – | 5 | 5 | 5
7 | CCc1nc(C(F)F)c(C(=O)N(C(=O)c2c(C)nn(C)c2F)c2ccccc2C(C)CC(C)C)s1 (centres unmarked) [1-292] | – | 5 | 5 | 5
8 | Cc1nc(C(F)(F)F)c(C(=O)N(C(=O)c2cn(C)nc2C(F)F)c2ccccc2C(C)CC(C)C)s1 (centres unmarked) [1-300] | 5 | 5 | 5 | 5
9 | Cc1nc(C(F)(F)F)c(C(=O)N(C(=O)c2c(C)nn(C)c2F)c2ccccc2C(C)CC(C)C)s1 (centres unmarked) [1-307] | 4 | – | – | –
10 | Cc1nc(C(F)F)c(C(=O)N(C(=O)c2c(C)nn(C)c2F)c2ccccc2C(C)CC(C)C)s1 (centres unmarked) [1-325] | 4 | – | – | –
11 | CC(C)CC(C)c1ccccc1N(C(=O)c1cccnc1C(F)F)C(=O)c1cn(C)nc1C(F)F (centres unmarked) [1-349] | 4 | – | – | –
12 | CC(C)CC(C)c1ccccc1N(C(=O)c1cn(C)nc1C(F)F)C(=O)c1c(C(F)F)nn(C)c1Cl (centres unmarked) [1-354] | 5 | 5 | 5 | 5
13 | Cc1nc(C(F)F)c(C(=O)N(C(=O)c2snc(Cl)c2Cl)c2ccccc2-c2cc(F)c(F)c(F)c2)s1 [7-68] | 4 | – | – | –
14 | Cc1nc(C(F)F)c(C(=O)N(C(=O)c2snc(Cl)c2Cl)c2c(Br)cc(OC(F)(F)F)cc2Br)s1 [7-129] | 4 | – | – | –
15 | Cc1nc(C(F)(F)F)c(C(=O)N(C(=O)c2scnc2C(F)(F)F)c2c(Br)cc(OC(F)(F)F)cc2Br)s1 [7-284] | – | 5 | 5 | 5
16 | Cc1nc(C(F)F)c(C(=O)N(C(=O)c2snnc2C)c2ccsc2C(C)CC(C)C)s1 (centres unmarked) [11-20] | 5 | – | – | –
17 | CC1CC(C)(C)c2cccc(N(C(=O)c3cn(C)nc3C(F)F)C(=O)c3scnc3C(F)(F)F)c21 (centres unmarked) [25-103] | 4 | – | – | –
18 | Cc1nn(C)c(Cl)c1C(=O)N(C(=O)c1cc(Cl)nc(Cl)c1)c1cccc2c1C(C)OC2(C)C (centres unmarked) [25-125] | 4 | – | – | –
